From publication PMC7156724, “Potent BRD4 inhibitor suppresses cancer cell-macrophage interaction” (Nature Communications, 2020)
“And” between values parts separate entries of the source, which are not always exact repeats. Equal entries are not always repeated.

Test system: ES-2 ovarian cancer
Test: ES-2 ovarian tumor xenograft growth
Type: in vivo, mouse
Description: 4–6 weeks old female BALB/c nude mice were used for most experiments, with the exception of 6–8 weeks old female C57BL/6 mice were used for B16F10 experiments, and 6–8 weeks old male BALB/c nude mice and SD rats were used for pharmacokinetic experiments. All animals were purchased from Shanghai SIPPR-Bk Lab Animal Co., Ltd. All animals were housed under a regimen of 12 h light/12 h dark cycles and specific pathogen-free conditions. 5×10^6 NCI-H526, ES-2, MDA-MB231, A2780, A375, B16F10, and TMD-8 cells (0.1 ml) were injected subcutaneously into female nude mice. The melanoma patient-derived xenograft model was derived from a human melanoma sample (BRAF, NARS and NF1 wild type, and p53 mutant) removed from a patient in Xiangya Hospital. Surgically removed tumor fragments were implanted subcutaneously into female NSG mice. When the tumors grew to ~1000 mm^3, they were harvested and cryopreserved or immediately re-implanted for expansion or experiments. Mouse body weight and tumor sizes were measured every 3 days. Once the tumors grew to 150–200 mm^3, mice were treated with the compounds as described in the Figures. 1 × 10^6 A2780 cells (1 ml) were injected into the abdominal cavity of nude mice. Ascitic volume and tumor weight were measured by an electronic balance. All the procedures were evaluated and approved by the Institutional Animal Care and Use Committee of Central South University and Yale University.
Supplementary Figure 9. […]
PO, oral administration; QD, once daily; BID, twice daily; D, day. (c,d) Tumor growth curves for ES2 ovarian tumor (c), MDA-MB231 breast tumor (d) bearing mice treated with the indicated compounds for 21 days. Compounds were orally administrated once daily. Data are presented as mean ± SEM from 6 different mice. p values were calculated using two-tailed, unpaired t tests.
**, p<0.01; ***, p<0.001. Source data are provided as a Source Data file. […]

[1] = ES-2, 1mg/kg p.o. QD x 21D, day 14, individual animals
[2] = ES-2, 1mg/kg p.o. QD x 21D, day 17, group AVG
[3] = ES-2, 1mg/kg p.o. QD x 21D, day 17, individual animals
[4] = ES-2, 1mg/kg p.o. QD x 21D, day 20, group AVG
[5] = ES-2, 1mg/kg p.o. QD x 21D, day 20, individual animals
[6] = ES-2, 3mg/kg p.o. QD x 21D, day 0, group AVG
[7] = ES-2, 3mg/kg p.o. QD x 21D, day 0, individual animals
[8] = ES-2, 3mg/kg p.o. QD x 21D, day 4, group AVG
[9] = ES-2, 3mg/kg p.o. QD x 21D, day 4, individual animals
[10] = ES-2, 3mg/kg p.o. QD x 21D, day 7, group AVG
[11] = ES-2, 3mg/kg p.o. QD x 21D, day 7, individual animals
[12] = ES-2, 3mg/kg p.o. QD x 21D, day 11, group AVG
[13] = ES-2, 3mg/kg p.o. QD x 21D, day 11, individual animals
[14] = ES-2, 3mg/kg p.o. QD x 21D, day 14, group AVG
[15] = ES-2, 3mg/kg p.o. QD x 21D, day 14, individual animals
[16] = ES-2, 3mg/kg p.o. QD x 21D, day 17, group AVG
[17] = ES-2, 3mg/kg p.o. QD x 21D, day 17, individual animals
[18] = ES-2, 3mg/kg p.o. QD x 21D, day 20, group AVG
[19] = ES-2, 3mg/kg p.o. QD x 21D, day 20, individual animals

## Cc1nnn(C)c1-c1cnc2c3c4cnn(C)c4ccc3n([C@H](c3ccccc3)C3CCOCC3)c2c1 [NHWD-870]
ES-2, 1mg/kg p.o. QD x 21D, day 14, group AVG
  Tumor volume, AVG: 765.856 mm^3
[1]
  % Tumor growth: 250.605% and 403.815% and 289.634% and 267.746% and 320.675% and 394.009%
  Tumor volume: 567.913 mm^3 and 1049.18 mm^3 and 1002.28 mm^3 and 523.611 mm^3 and 940.859 mm^3 and 511.301 mm^3
[2]
  % Tumor growth, AVG: 435.897%
  Tumor volume, AVG: 1001.66 mm^3
[3]
  % Tumor growth: 362.904% and 591.91% and 468.225% and 329.053% and 437.775% and 425.513%
  Tumor volume: 749.817 mm^3 and 1440.88 mm^3 and 1461.68 mm^3 and 610.902 mm^3 and 1202.76 mm^3 and 543.908 mm^3
[4]
  % Tumor growth, AVG: 569.584%
  Tumor volume, AVG: 1249.88 mm^3
[5]
  % Tumor growth: 729.742% and 506.506% and 450.639% and 539.702% and 621.332%
  Tumor volume: 1727.91 mm^3 and 1560.15 mm^3 and 784.021 mm^3 and 1430.72 mm^3 and 746.582 mm^3
[6]
  % Tumor growth, AVG: 0%
  Tumor volume, AVG: 180.514 mm^3
[7]
  % Tumor growth: 0%
  Tumor volume: 100.979 mm^3 and 154.514 mm^3 and 151.014 mm^3 and 168.003 mm^3 and 255.303 mm^3 and 253.274 mm^3
[8]
  % Tumor growth, AVG: 106.339%
  Tumor volume, AVG: 355.904 mm^3
[9]
  % Tumor growth: 103.958% and 55.5923% and 228.844% and 138.521% and 84.9035% and 26.2158%
  Tumor volume: 205.955 mm^3 and 240.412 mm^3 and 496.599 mm^3 and 400.722 mm^3 and 472.064 mm^3 and 319.672 mm^3
[10]
  % Tumor growth, AVG: 146.015%
  Tumor volume, AVG: 424.47 mm^3
[11]
  % Tumor growth: 172.578% and 87.9551% and 265.997% and 159.587% and 128.487% and 61.4849%
  Tumor volume: 275.247 mm^3 and 290.417 mm^3 and 552.706 mm^3 and 436.115 mm^3 and 583.334 mm^3 and 408.999 mm^3
[12]
  % Tumor growth, AVG: 196.378%
  Tumor volume, AVG: 514.744 mm^3
[13]
  % Tumor growth: 265.602% and 115.285% and 217.088% and 283.945% and 177.512% and 118.838%
  Tumor volume: 369.182 mm^3 and 332.645 mm^3 and 478.846 mm^3 and 645.04 mm^3 and 708.495 mm^3 and 554.259 mm^3
[14]
  % Tumor growth, AVG: 274.736%
  Tumor volume, AVG: 656.818 mm^3
[15]
  % Tumor growth: 256.941% and 190.731% and 428.695% and 356.714% and 248.463% and 166.876%
  Tumor volume: 360.436 mm^3 and 449.22 mm^3 and 798.401 mm^3 and 767.293 mm^3 and 889.635 mm^3 and 675.926 mm^3
[16]
  % Tumor growth, AVG: 372.557%
  Tumor volume, AVG: 841.506 mm^3
[17]
  % Tumor growth: 349.385% and 221.259% and 495.296% and 524.547% and 433.889% and 210.963%
  Tumor volume: 453.785 mm^3 and 496.39 mm^3 and 898.977 mm^3 and 1049.26 mm^3 and 1363.03 mm^3 and 787.588 mm^3
[18]
  % Tumor growth, AVG: 570.165%
  Tumor volume, AVG: 1173.35 mm^3
[19]
  % Tumor growth: 589.68% and 492.445% and 716.71% and 706.345% and 598.649% and 317.161%
  Tumor volume: 696.433 mm^3 and 915.41 mm^3 and 1233.34 mm^3 and 1354.69 mm^3 and 1783.67 mm^3 and 1056.56 mm^3
ES-2 ovarian cancer, oral once daily 21 days
  effect on tumor growth: strong tumor-suppressive effects
